Reference: paper PMC2527810, “[^18F]FDG and [^18F]FLT uptake in human breast cancer cells in relation to the effects of chemotherapy: an in vitro study” (British Journal of Cancer, 2008)

Key:
[1] = system: Thymidine kinase (TK) activity in MDA MB231 breast cancer cells; experiment: TK enzyme activity (FLT phosphorylation) in lysates of drug-treated cells; assay type: cell-based, human; conditions: IC50 concentration
Procedure: . Enzyme activity was also analysed in CEM cells and in the corresponding TK-1-deficient subtype to assess whether FLT phosphorylation only occurs in the presence of sufficient cytosolic TK-1.
Cell pellets were suspended in 50 mM Tris/1 mM EDTA (pH 7.4) and sonificated on ice. Lysates were spun down and supernatant diluted 1 : 8 in 50 mM Tris/1 mM EDTA (pH 7.4).
3′-deoxy-3′-[^18F]fluorothymidine was diluted with 50 mM Tris/1 mM EDTA (pH 7.4) and 1 : 1 mixed with 20 mM ATP, 10 mM MgCl2, resulting in an FLT concentration of about 60 MBq ml^−1 (6.32–18.89 pmol per sample). […] .
The assay was optimised for protein concentration and incubation times. Diluted cell lysates or purified TK-2 (kindly provided by A. Karlsson, Karolinska Institute, Stockholm, Sweden) were incubated with the FLT mixture for 15 min at 37°C and the reaction was stopped by heating the samples at 95°C for 5 min. Substrate (FLT) and product (FLT-phosphate) were separated by TLC and radioactivity was measured in a single-well gamma counter (Wallac1480 Wizard, Perkin Elmer Lifescience, MA, USA). Protein concentrations were measured in a Bio-Rad Bradford protein assay (Bio-Rad Laboratories, Hercules, CA, USA).

[2] = system: MDA MB231 cells; experiment: Cytotoxicity by sulforhodamine (SRB) assay; assay type: cell-based; conditions: Homo sapiens, MDA-MB-231, 72 h drug incubation, read-out: IC50 (50% reduction in growth)
Procedure: The human breast cancer cell line MDA MB231 (ATCC no. HTB-26) and CEM leukaemia cells (CEM wild type and TK-deficient CEM/TK-) were cultured in RPMI 1640 supplemented with 10% foetal bovine serum and 1% penicillin/streptomycin (P/S), at 5% CO2 in a humidified atmosphere at 37°C. Cell counting was performed with a Casy cell counter (Schärfe System GmbH, Reutlingen, Germany).
Cytotoxicity to 5-FU (Sigma Chemical Co., MO, St Louis, USA), doxorubicin (doxorubicin hydrochloride, Pfizer, Cappelle a/d IJssel, The Netherlands) and paclitaxel (Sigma Chemical Co.) was determined by sulforhodamine (SRB) assay. Briefly, cells were plated in 96-well plates and after 24 h, drugs were added at various concentrations, incubated for 72 h and the SRB assay was performed as described previously ([de Bruin et al, 2003]). The IC50 is the concentration resulting in 50% reduction in growth compared with untreated control cells.

[3] = system: MDA MB231 cells; experiment: Cellular FLT uptake after drug incubation; assay type: cell-based, human; conditions: IC50 concentration
Procedure: (§1) Cells were plated in six identical 24-well plates at 75 000 cells per ml. […] Control cells were plated in a concentration of 45 000 cells per ml, 4 days before tracer uptake. Cell culture medium was replaced 4 h before adding PET tracers. For FDG plates, medium was replaced with medium without glucose (+IC50 drugs concentration), as glucose competes with FDG uptake. For FLT plates, medium was replaced with medium without L-glutamine (+IC50 drugs concentration). The presence of L-glutamine in the culture medium may reduce FLT uptake, as glutamine is a source of thymidine monophosphate competing with FLT uptake through the de novo pathway.
(§2) One MBq per well FDG or FLT was added to the cells and incubated for 60 min at 37°C. After removal of excess tracer, cellular tracer uptake was determined with an ECAT Exact HR+ PET scanner (Siemens/CTI, Knoxville, TN, USA). Images were analysed using CAPP software (version 7.2, CTI/Siemens, Knoxville, TN, USA). Regions of interest (ROI) were drawn manually in a plane with visible tracer uptake. Next, ROIs were copied to all other planes and total activity per well was calculated and plotted against exact number of cells. Tracer uptake was also determined in an identical plate using the single-well gamma counter. Tracer uptake was corrected for the number of cells.

[4] = system: MDA MB231 cells; experiment: Cellular FDG uptake after drug incubation; assay type: cell-based, human; conditions: IC50 concentration
Procedure: as §1, §2

[5] = system: MDA MB231 cells; experiment: Cell cycle analysis after exposure to IC50 drug concentrations; assay type: cell-based, human; conditions: for cell cycle effect (in words): at IC50 concentrations
Procedure: For cell cycle analysis, cells were exposed to IC50 concentrations of the various drugs for 4, 24, 48 or 72 h, fixed in 70% ethanol (1 × 10^6 cells per ml) and stored at 4°C until analysis, as described previously ([Temmink et al, 2007]) according to a slightly modified protocol.

[6] = system: TK-1 protein levels of MDA MB231 cells; experiment: TK-1 protein levels by Western blot; conditions: for Mean (±s.d.) change in TK-1 protein levels compared with untreated cells (set to 100%) / increase in TK-1 levels: IC50 concentration; for increase in TK-1 levels compared with untreated cells: abstract, time not stated; for increase in TK-1 levels: at 48 h
[7] = 48 h incubation, IC50 concentration

| Structure (SMILES) | IC50 [2] [µM] | Mean (±s.d.) change in FLT uptake compared with untreated cells (set to 100%) ([3]; 4 h) [%] | Mean (±s.d.) change in FLT uptake compared with untreated cells (set to 100%) ([3]; 24 h) [%] | Mean (±s.d.) change in FLT uptake compared with untreated cells (set to 100%) ([3]; 48 h) [%] | Mean (±s.d.) change in FLT uptake compared with untreated cells (set to 100%) ([3]; 72 h) [%] | Mean (±s.d.) change in FDG uptake compared with untreated cells (set to 100%) ([4]; 4 h) [%] | Mean (±s.d.) change in FDG uptake compared with untreated cells (set to 100%) ([4]; 24 h) [%] | Mean (±s.d.) change in FDG uptake compared with untreated cells (set to 100%) ([4]; 48 h) [%] | Mean (±s.d.) change in FDG uptake compared with untreated cells (set to 100%) ([4]; 72 h) [%] | cell cycle effect (in words) [5] | Mean (±s.d.) change in TK-1 protein levels compared with untreated cells (set to 100%) ([6]; 4 h) [%] | Mean (±s.d.) change in TK-1 protein levels compared with untreated cells (set to 100%) ([6]; 24 h) [%] | Mean (±s.d.) change in TK-1 protein levels compared with untreated cells (set to 100%) ([6]; 48 h) [%] | Mean (±s.d.) change in TK-1 protein levels compared with untreated cells (set to 100%) ([6]; 72 h) [%] | increase in TK-1 levels compared with untreated cells [6] | increase in TK-1 levels [6] | further results |
| --- | --- | --- | --- | --- | --- | --- | --- | --- | --- | --- | --- | --- | --- | --- | --- | --- | --- |
| O=c1[nH]cc(F)c(=O)[nH]1 [5-FU, 5-fluorouracil] | 5 | 99±45 | 113±7 | 101±8 | 46±32 | 67±2 | 70±13 | 69±21 | 45±20 | accumulation in the G1 phase | 163±1 | 122±38 | 184±53 | 443±58 | > 300 | two-fold | TK activity compared with untreated cells (in words) ([1]; 48 and 72 h, effects minor): increased TK activity; decrease in FLT uptake ([3]; 72 h): 54%; decrease in FLT uptake ([3]; 72 h, listed as 5-fluorouracil): approximately 50%; decrease in FDG uptake ([4]; 72 h, listed as 5-fluorouracil): approximately 50% |
| COc1cccc2c1C(=O)c1c(O)c3c(c(O)c1C2=O)C[C@@](O)(C(=O)CO)C[C@@H]3O[C@H]1C[C@H](N)[C@H](O)[C@H](C)O1 [doxorubicin] | 0.2 | 123±83 | 137±52 | 494±232 | 273±209 | 57±35 | 124±59 | 133±45 | 171±0 | G2/M accumulation | 64±6 | 130±78 | 177±71 | 473±348 | > 300 | two-fold | increase in TK activity compared with untreated cells ([1]; after 24 h): more than three-fold; increase in FLT uptake ([3]; 72 h): 173%; increase in FLT uptake ([3]; irrespective of incubation time): > 24%; increase in FDG uptake ([4]; 72 h): 71%; increase in FDG uptake ([4]; at 24, 48 and 72 h): > 24%; decrease in G1 phase [5, 7]: 90%; decrease in S phase [5, 7]: 70%; accumulation in the G2/M phase ([5]; 48 h incubation, IC50 concentration, vs control cells): two-fold |
